6 compounds from US20160302455A1, “Methods Of Producing An Antimicrobial Solution And Methods For Reducing Bacteria On Produce And/Or Minimizing Enzymatic Browning Of Produce” (priority 2015, published 2016) can be followed below.

Where two headings read alike, the source gives them in different places. Ends that are not written are not given here.

In assay [1] the test system is Aerobic, mesophilic bacteria. The class given is cell-based.
In assay [2] the test system is L. monocytogenes. The class given is cell-based, Listeria monocytogenes.
Assay [3] deals with Salmonella spp. In kind it is cell-based.
Assay [4] has as its system E. coli O157:H7. The class given is cell-based, Escherichia coli O157:H7.
The subject of assay [5] is L. monocytogenes. The class given is cell-based, Listeria monocytogenes. This is another data set of the same source.
The subject of assay [6] is E. coli O157:H7. In kind it is cell-based, Escherichia coli O157:H7. The source holds these as a separate data set.
Assay [7] concerns Salmonella spp. In kind it is cell-based. This is another data set of the same source.
Assay [8] has as its system Aerobic mesophilic bacteria.
In assay [9] the test system is Aerobic mesophilic bacteria. The source holds these as a separate data set.

As for `C/C=C/C=C/C(=O)O` [Sorbic acid (0.03%), Sorbic acid], in assay [1], the “Log reduction of aerobes on cantaloupe rind surface” value (“Log reduction of aerobes” below) is listed as “(1.1) log”. Besides, the “Log reduction of L. monocytogenes on cantaloupe rind surface” value (from here on “Log reduction of L. monocytogenes”) in assay [2] is listed as “(2.2) log”. The “Log reduction of Salmonella spp on cantaloupe rind surface” value (“Log reduction of Salmonella spp” below) in assay [3] was “(2.0) log”. In assay [4], the “Log reduction of E. coli O157:H7 on cantaloupe rind surface” value (“Log reduction of E. coli O157:H7” for short) is “(1.8) log”.
Take `OO` [hydrogen peroxide]: in assay [5], the “Average population of L. monocytogenes inactivated” value amounted to 5.0 log. Also, the “Average population of E. coli O157:H7 inactivated” value in assay [6] was found to be 5.5 log. Besides, the “Average population of Salmonella inactivated” value in assay [7] stood at 5.1 log. Further, the “Log reduction of aerobes” value in assay [1] is “(2.0) log”. Also, the “Population of aerobic mesophilic bacteria, fresh-cut” value in assay [1] is given as 1.9 ± 0.10C Log10 CFU/g; in [8], 0.5 ± 0.10D Log10 CFU/g; in [9], 0.3 ± 0.02D Log10 CFU/g. Further, the “Log reduction of L. monocytogenes” value in assay [2] is reported as “(3.4) log”. The “Log reduction of Salmonella spp” value in assay [3] is “(3.0) log”. The “Log reduction of E. coli O157:H7” value in [4] is listed as “(2.9) log”.
Sodium Lactate [Sodium Lactate (2%)]: the “Log reduction of aerobes” value in assay [1] is reported as “(1.1) log”. Also, the “Log reduction of L. monocytogenes” value in assay [2] is recorded as “(2.8) log”. Besides, the “Log reduction of Salmonella spp” value in assay [3] is “(1.5) log”. Also, the “Log reduction of E. coli O157:H7” value in assay [4] was “(1.4) log”.
Consider `O=C(O)CN(CCN(CC(=O)O)CC(=O)O)CC(=O)O` [EDTA (0.02 M), ethylenediaminetetraacetic acid], for which, in assay [1], the “Log reduction of aerobes” value is “(0.4) log”. Also, the “Log reduction of L. monocytogenes” value in assay [2] is listed as “(0.2) log”. Further, the “Log reduction of Salmonella spp” value in [3] is “(0.4) log”. The “Log reduction of E. coli O157:H7” value in assay [4] is “(0.3) log”.
Consider `O=C(O)CC(O)(CC(=O)O)C(=O)O` [Citric Acid (10 mM), Citric acid], for which, in [1], the “Log reduction of aerobes” value is “(1.2) log”. The “Log reduction of L. monocytogenes” value in assay [2] was “(2.0) log”. For the same compound, in assay [3], the “Log reduction of Salmonella spp” value is on record as “(1.8) log”. Besides, in assay [4], the “Log reduction of E. coli O157:H7” value is on record as “(1.5) log”.
Regarding “nisin (ITSISLCTPGCKTGALMGCNMKTATCHCSIHVSK; not fully specified (some residues, bridges); cysteine pairing not given here; UniProt P13068 24-57, looked up) [Nisin (30 mg; (~10 μg/ml)]”, the “Log reduction of aerobes” value in [1] is listed as “(1.2) log”. Also, the “Log reduction of L. monocytogenes” value in [2] is “(3.6) log”.
